Reference: the SangsterLogP compilation

assay: method code SF-AS, from DOI: 10.1021/je900189v

In order of falling logP:
1. O=S(=O)(Nc1cccc(Cl)c1Cl)c1ccccc1  3.45
2. O=S(=O)(Nc1ccc(Cl)cc1)c1ccccc1  3.44
3. Nc1ccc(S(=O)(=O)Nc2cc(Cl)c(Cl)cc2Cl)cc1  3.17
4. Nc1ccc(S(=O)(=O)Nc2ccccc2Cl)c(Cl)c1  2.98
5. Cc1ccc(NS(=O)(=O)c2ccc(N)cc2)cc1Cl  2.92
6. Nc1ccc(S(=O)(=O)Nc2ccc(I)cc2)cc1  2.82
7. Cc1cc(N)ccc1S(=O)(=O)Nc1ccc(Cl)cc1  2.73
8. Cc1ccc(Cl)cc1NS(=O)(=O)c1ccc(N)cc1  2.73
9. O=S(=O)(Nc1ccccc1Cl)c1ccccc1  2.72
10. Cc1cc(N)ccc1S(=O)(=O)Nc1ccccc1Cl  2.66
11. Cc1cc(Cl)ccc1NS(=O)(=O)c1ccc(N)cc1  2.65
12. Nc1ccc(S(=O)(=O)Nc2ccc(Cl)c(Cl)c2)cc1  2.64
13. CCc1ccc(NS(=O)(=O)c2ccc(N)cc2)cc1  2.62
14. Nc1ccc(S(=O)(=O)Nc2ccc(Cl)cc2)c(Cl)c1  2.48
15. Nc1ccc(S(=O)(=O)Nc2ccc(Cl)cc2)cc1  2.47
16. Nc1ccc(S(=O)(=O)Nc2cc(Cl)ccc2Cl)cc1  2.45
17. COc1c(Cl)cccc1NS(=O)(=O)c1ccc(N)cc1  2.43
18. Cc1ccc(NS(=O)(=O)c2ccc(N)cc2)c(Cl)c1  2.37
19. CCOc1ccc(NS(=O)(=O)c2ccc([N+](=O)[O-])cc2)cc1  2.23
20. Cc1cc(N)ccc1S(=O)(=O)Nc1ccccc1[N+](=O)[O-]  2.19
21. O=[N+]([O-])c1ccc(NS(=O)(=O)c2ccccc2)cc1  2.09
22. O=[N+]([O-])c1ccccc1NS(=O)(=O)c1ccccc1  2.08
23. O=S(=O)(Nc1cccnc1Cl)c1ccccc1  1.89
24. Nc1ccc(S(=O)(=O)Nc2ccc([N+](=O)[O-])cc2)cc1  1.88
25. Nc1ccc(S(=O)(=O)Nc2ccc([N+](=O)[O-])cc2Br)cc1  1.87
26. COc1ccc(NS(=O)(=O)c2ccc(N)cc2)cc1  1.58
27. O=S(=O)(Nc1ncccc1Cl)c1ccccc1  1.54
28. CCN(CC)S(=O)(=O)c1ccc(N)cc1  1.52
29. O=[N+]([O-])c1ccc(S(=O)(=O)Nc2nccs2)cc1  1.19
30. Cc1ccc(NS(=O)(=O)c2ccc([N+](=O)[O-])cc2)nc1  1.01
31. CC(=O)Nc1ccncc1NS(=O)(=O)c1ccc([N+](=O)[O-])cc1  0.71
32. CNS(=O)(=O)c1ccc(N)cc1  0.07
